Laboratory results from patent US20070071773A1, “Compositions and methods for the treatment and prophylaxis of infections caused by gram positive bacteria” (priority 2002, published 2007).

System: C5a peptidase
Assay: Surface expressed C5a peptidase of GAS in the absence and presence of SilCR
Type: cell-based, Group A Streptococcus (GAS)
Conditions: absence vs presence of SilCR (not shown)

“DIFKLVIDHISMKARKK (SilCR peptide) [17 amino acid synthetic peptide, predicted mature form of the pheromone peptide encoded by the SilCR ORF; used at 70% or 90% purity]” was tested, and the “amount of surface expressed C5a peptidase” value was “did not observe any change”.
